The values that follow come from US20220280587A1, “MEDICAL GELS CONTAINING A QUATERNARY AMMONIUM COMPOUND, PHENOXYETHANOL, ALOE VERA JUICE, AND NATURAL SPORICIDAL MOISTURIZERS” (priority 2021, published 2022).

Converted amounts (≈) assume the structure as drawn. A value given as a limit tells only on which side of the number the result lay.

Common to all, as to type: cell-based
One test concerns C. botulinum spores. Nature of the test: microbe, parasite or virus in culture. The conditions noted are these: for MIC / MBC: Clostridium botulinum; for MIC: read-out: Sporostatic MIC (mM); for MBC: read-out: Sporicidal MIC (mM).
The subject of another test is P. italicum. The test is described as follows: Antifungal combination of potassium sorbate and vanillin (MIC, FIC isobologram). The conditions noted are these: Penicillium italicum.
In a further test the test system is P. glabrum. Described as above.
In a further test the test system is P. digitatum. Described as above. The conditions noted are these: Penicillium digitatum.
The test system of another test is Pseudomonas aeruginosa. The test is described as follows: Bactericidal / inhibitory concentration against Pseudomonas aeruginosa.

On to `CC=O` [Acetaldehyde], for which the MIC in the test with C. botulinum spores was 0.78 mM (≈ 34.4 µg/mL).
Turning to `O=Cc1ccccc1` [Benzaldehyde], in the test with C. botulinum spores, the MIC was determined as 0.6 mM (≈ 63.7 µg/mL).
Take `O=CC=Cc1ccccc1` [Cinnamaldehyde]: the MIC with C. botulinum spores came to 0.78 mM (≈ 103 µg/mL).
With `CCCCCCC=O` [Hepaldehyde], in the test on C. botulinum spores, the “Sporicidal MIC” value is recorded as greater than 2500 mM and the “Sporostatic MIC” value is recorded as 0.60 mM.
As for `CC(C)C=O` [Isobutyraldehyde], in the test with C. botulinum spores, the MBC amounted to 39 mM (≈ 2810 µg/mL) and the MIC is 0.6 mM (≈ 43.3 µg/mL).
As to `O=CCc1ccccc1` [Phenylacetaldehyde], the MIC in the test with C. botulinum spores was 0.6 mM (≈ 72.1 µg/mL).
On the same count and under the same terms, as for `O=CC(=O)c1ccccc1` [Phenylglyoxal], the figure is 0.6 mM (≈ 80.5 µg/mL); as for `O=Cc1ccc2c(c1)OCO2` [Piperonal], 0.6 mM (≈ 90.1 µg/mL).
Take `CC(=O)C=O` [Pyruvaldehyde]: in the test with C. botulinum spores, the “Sporicidal MIC” value was found to be 156 mM and the “Sporostatic MIC” value came out at 2.44 mM.
With `CCCCC=O` [Valeraldehyde], the MIC with C. botulinum spores is 2.44 mM (≈ 210 µg/mL).
Take `COc1cc(C=O)ccc1O` [Vanillin]: the MIC turned out to be 1100 µg/mL in the test on P. italicum (potassium sorbate 0 PPM); 300 µg/mL in the test on P. italicum (potassium sorbate 100 PPM); 100 µg/mL with P. italicum (potassium sorbate 150 PPM); 1200 µg/mL in the test on P. glabrum (potassium sorbate 0 PPM); 1100 µg/mL in the test on P. glabrum (potassium sorbate 100 PPM); 500 µg/mL with P. glabrum (potassium sorbate 300 PPM). Besides, the MIC in the test on P. glabrum (potassium sorbate 500 PPM) was 100 µg/mL; with P. digitatum (potassium sorbate 0 PPM) it was 1100 µg/mL; in the test with P. digitatum (potassium sorbate 50 PPM), 300 µg/mL; in the test on P. digitatum (potassium sorbate 100 PPM), 100 µg/mL; with C. botulinum spores, 0.6 mM (≈ 91.3 µg/mL). Besides, the MBC in the test on C. botulinum spores is 1.25 mM (≈ 190 µg/mL).
As to `CCCCCC(C=O)=Cc1ccccc1` [α-Amylcinnamaldehyde], the MIC in the test on C. botulinum spores worked out at 0.6 mM (≈ 121 µg/mL).
Take benzalkonium chloride: the “Concentration that kills Pseudomonas aeruginosa” value in the test on Pseudomonas aeruginosa (benzalkonium chloride alone) worked out at 0.13%; in the test on Pseudomonas aeruginosa (when aloe vera juice is present at 10%), 0.10%.
